From publication PMC4145316, “Cytotoxic and Apoptosis-Inducing Activity of Triterpene Glycosides from Holothuria scabra and Cucumaria frondosa against HepG2 Cells” (Marine Drugs, 2014)
≈ marks a conversion by molar mass, not a printed value.

What was measured:
[1] = system: human hepatoma (HepG2) cells; experiment: MTT cytotoxicity assay, HepG2 cells; assay type: cell-based; settings: for IC50 (μg/mL) HepG2: means ± SD (n = 3); for IC50: Homo sapiens, HepG2, means ± SD (n = 3), read-out: IC50 (μg/mL) HepG2
Experimental: (§1) Human hepatoma (HepG2), human cervical cancer (HeLa), human leukemia (K562) and human liver (HL-7702) cells were obtained by Shanghai Institute of Biochemistry and Cell Biology, and maintained in the logarithmic phase of growth in RPMI-1640 complete medium supplemented with 2 mM L-glutamine (Sigma Chemical Co., Saint Louis, MO, USA), 100 IU/mL penicillin, 100 μg/mL streptomycin and 10% FCS at 37 °C under humidified air with 5% CO2.
(§2) The effect of compounds 1–13 on the viability of HepG2, HeLa, K562 and HL-7702 cells was determined by MIT assay as described previously. Briefly, the tumor and normal cells were seeded at 1 × 10^4 cells/well in a 96-well microtiter plate and incubated at 37 °C in a humidified atmosphere with 5% CO2. After 24 h, compounds 1–13, the positive drug CDDP or RPMI-1640 medium were added into each well, and the plates were incubated at 37 °C for the indicated time. Each concentration was repeated four wells. 50 μL of MTT solution (2 mg/mL) was added to each well 4 h before incubation end, and incubated further for 4 h. The plates were centrifuged (1400× g, 5 min) and the untransformed MTT was removed carefully by pipetting. To each well, 150 μL of DMSO was added and the absorbance was evaluated in an ELISA reader at 570 nm after 15 min. The inhibitory rates and 50% inhibitory concentrations (IC50) values towards cell viability were calculated by NDST software. Each test was performed in triplicate.

[2] = system: human leukemia (K562) cells; experiment: MTT cytotoxicity assay, K562 cells; assay type: cell-based; settings: for IC50 (μg/mL) K562: means ± SD (n = 3); for IC50: Homo sapiens, K562, means ± SD (n = 3), read-out: IC50 (μg/mL) K562
Experimental: as §1, §2

[3] = system: human cervical cancer (HeLa) cells; experiment: MTT cytotoxicity assay, HeLa cells; assay type: cell-based; settings: means ± SD (n = 3); for IC50: Homo sapiens, HeLa, read-out: IC50 (μg/mL) HeLa
Experimental: as §1, §2

[4] = system: human liver (HL-7702) cells; experiment: MTT cytotoxicity assay, normal HL-7702 cells; assay type: cell-based; settings: for IC50 (μg/mL) HL-7702 / IC50: MTT assay, normal hepatocytes, means ± SD (n = 3); for Ratio (HL-7702/HepG2): ratio of IC50 values against HL-7702 and HepG2 cells, selective cytotoxicity; for IC50: Homo sapiens, L02, read-out: IC50 (μg/mL) HL-7702
Experimental: as §1, §2

[5] = system: human gastric cancer MKN-45 cells; settings: read-out: IC50 against MKN-45 cells; cited from earlier work
HeLa cells = system: HeLa cells; parameters: method as in PMID 18288810; settings: cited from earlier work

Molecule: 24-Dehydro frondoside A6 [24-Dehydro frondoside A6 (13)]
- IC50 (μg/mL) HepG2 [1]: 3.57 ± 0.54 µg/mL
- IC50 (μg/mL) K562 [2]: 5.61 ± 1.05 µg/mL
- IC50 (μg/mL) HeLa [3]: 3.16 ± 0.34 µg/mL
- IC50 (μg/mL) HL-7702 [4]: 7.55 ± 0.83 µg/mL
- Ratio (HL-7702/HepG2) [4]: 2.12

Molecule: CO[C@@H]1[C@@H](O)[C@H](O[C@@H]2[C@@H](O)[C@H](O[C@H]3[C@H](O)[C@@H](O)[C@H](O[C@H]4[C@H](O[C@H]5CC[C@]6(C)C7=C[C@H](O)C89C(=O)O[C@@](C)(CCC=C(C)C)[C@@]8(O)CC[C@@]9(C)C7CCC6C5(C)C)OC[C@@H](OS(=O)(=O)[O-])[C@@H]4O)O[C@@H]3C)O[C@H](CO)[C@H]2O)O[C@H](CO)[C@H]1O.[Na+] (stereo partly drawn) [24-Dehydro echinoside A (2), 24-Dehydro echinoside A]
- IC50 (μg/mL) HepG2 [1]: 1.95 ± 0.09 µg/mL
- IC50 (μg/mL) K562 [2]: 6.15 ± 0.24 µg/mL
- IC50 [5]: 1.6 µM
- IC50 (μg/mL) HeLa [3]: 2.06 ± 0.27 µg/mL
- IC50 (μg/mL) HL-7702 [4]: 3.75 ± 0.40 µg/mL
- Ratio (HL-7702/HepG2) [4]: 1.92

Molecule: N.N.[Cl][Pt][Cl] [CDDP, cis-diamminedichloroplatinum, reference compound]
- IC50 (μg/mL) HepG2 [1]: 2.05 ± 0.13 µg/mL
- IC50 (μg/mL) K562 [2]: 2.99 ± 0.24 µg/mL
- IC50 (μg/mL) HeLa [3]: 3.41 ± 0.37 µg/mL
- IC50 (μg/mL) HL-7702 [4]: 4.48 ± 0.41 µg/mL
- Ratio (HL-7702/HepG2) [4]: 2.18

Molecule: CO[C@@H]1[C@@H](O)[C@H](CO)O[C@@H](O[C@H]2[C@@H](O)[C@@H](O[C@H]3[C@@H](O)[C@@H](O[C@H]4OC[C@@H](O)[C@@H](O)[C@@H]4O)[C@H](O[C@H]4[C@H](O[C@H]5CC[C@@]6(C)[C@H](CC=C7[C@@H]6CC[C@]68C(=O)O[C@](C)(CCCC(C)C)[C@H]6[C@H](OC(C)=O)C[C@@]78C)C5(C)C)OC[C@@H](OS(=O)(=O)O)[C@H]4O)O[C@@H]3C)OC[C@@H]2O)[C@@H]1O [Frondoside A1 (10), Frondoside A1]
- IC50 (μg/mL) HepG2 [1]: 1.91 ± 0.03 µg/mL (≈ 1.45 µM)
- IC50 (μg/mL) K562 [2]: 2.21 ± 0.56 µg/mL (≈ 1.68 µM)
- IC50 (μg/mL) HeLa [3]: 2.03 ± 0.17 µg/mL (≈ 1.55 µM)
- IC50 (μg/mL) HL-7702 [4]: 4.96 ± 1.10 µg/mL (≈ 3.78 µM)
- Ratio (HL-7702/HepG2) [4]: 2.60
- Ratio (HL-7702/HepG2) ([4]; listed as 10): more than 2

Molecule: CO[C@@H]1[C@@H](O)[C@H](O[C@@H]2[C@@H](O)[C@H](O[C@H]3[C@H](O)[C@@H](O[C@@H]4OC[C@@H](O)[C@H](O)[C@H]4O)[C@H](O[C@H]4[C@H](OC5CC[C@]6(C)[C@H]7CCC89C(=O)O[C@@](C)(CCCC(C)C)C8[C@@H](OC(C)=O)C[C@@]9(C)C7=CC[C@H]6C5(C)C)OC[C@@H](OS(=O)(=O)O)[C@@H]4O)O[C@@H]3C)OC[C@H]2O)O[C@H](CO)[C@H]1O (stereo partly drawn) [Frondoside A (11), Frondoside A]
- IC50 [1]: 4.14 ± 0.57 µg/mL (≈ 3.15 µM)
- IC50 [2]: 3.76 ± 0.05 µg/mL (≈ 2.86 µM)
- IC50 [3]: 3.3 ± 0.05 µg/mL (≈ 2.51 µM)
- IC50 [4]: 5.42 ± 0.98 µg/mL (≈ 4.13 µM)
- Ratio (HL-7702/HepG2) [4]: 1.31

Molecule: CO[C@@H]1[C@@H](O)[C@H](O[C@@H]2[C@@H](O)[C@H](O[C@H]3[C@H](O)[C@@H](O)[C@H](O[C@H]4[C@H](O[C@H]5CC[C@]6(C)C7=C[C@H](O)[C@]89C(=O)O[C@@](C)(C(O)CCC(C)C)[C@@]8(O)CC[C@@]9(C)[C@@H]7CC[C@H]6C5(C)C)OC[C@@H](OS(=O)(=O)[O-])[C@@H]4O)O[C@@H]3C)O[C@H](CO)[C@H]2O)O[C@H](CO)[C@H]1O.[Na+] (stereo partly drawn) [Holothurin A1 (7), Holothurin A1]
- IC50 (μg/mL) HepG2 [1]: 2.90 ± 0.21 µg/mL
- IC50 (μg/mL) K562 [2]: 6.50 ± 0.01 µg/mL
- IC50 (μg/mL) HeLa [3]: 2.84 ± 0.09 µg/mL
- IC50 (μg/mL) HL-7702 [4]: 3.59 ± 0.05 µg/mL
- Ratio (HL-7702/HepG2) [4]: 1.24

Molecule: CO[C@@H]1[C@@H](O)[C@H](O[C@@H]2[C@@H](O)[C@H](O[C@H]3[C@H](O)[C@@H](O)[C@H](O[C@H]4[C@H](O[C@H]5CC[C@]6(C)C7=C[C@H](O)[C@@]89C(=O)O[C@@](C)(C%10CCC(C)(C)O%10)[C@@]8(O)CC[C@@]9(C)[C@@H]7CC[C@H]6C5(C)C)OC[C@@H](OS(=O)(=O)O)[C@@H]4O)O[C@@H]3C)O[C@H](CO)[C@H]2O)O[C@H](CO)[C@H]1O (stereo partly drawn) [Holothurin A (6), Holothurin A]
- IC50 [1]: 3.46 ± 0.33 µg/mL (≈ 2.88 µM)
- IC50 [2]: 8.94 ± 0.01 µg/mL (≈ 7.45 µM)
- IC50 [5]: 2.37 µM
- IC50 [3]: 3.76 ± 0.47 µg/mL (≈ 3.14 µM)
- IC50 [4]: 3.85 ± 0.32 µg/mL (≈ 3.21 µM)
- Ratio (HL-7702/HepG2) [4]: 1.11

Molecule: C[C@H]1O[C@@H](O[C@H]2[C@H](O[C@H]3CC[C@]4(C)C5=C[C@H](O)C67C(=O)O[C@@](C)(C8CCC(C)(C)O8)[C@@]6(O)CC[C@@]7(C)[C@@H]5CCC4C3(C)C)OC[C@@H](OS(=O)(=O)[O-])[C@@H]2O)[C@H](O)[C@@H](O)[C@@H]1O.[Na+] (stereo partly drawn) [Holothurin B (3), Holothurin B]
- IC50 (μg/mL) HepG2 [1]: 1.79 ± 0.02 µg/mL
- IC50 (μg/mL) K562 [2]: 3.64 ± 0.04 µg/mL
- IC50 [5]: 1.59 µM
- IC50 (μg/mL) HeLa [3]: 2.05 ± 0.11 µg/mL
- IC50 (μg/mL) HL-7702 [4]: 2.69 ± 0.45 µg/mL
- Ratio (HL-7702/HepG2) [4]: 1.50

Molecule: CC(C)CCC[C@]1(C)OC(=O)C23[C@@H](O)C=C4[C@@H](CC[C@H]5C(C)(C)C(O[C@@H]6OC[C@@H](OS(=O)(=O)O)[C@H](O)[C@H]6O[C@@H]6O[C@H](C)[C@@H](O)[C@H](O)[C@H]6O)CC[C@]45C)[C@]2(C)CC[C@@]31O (stereo partly drawn) [echinoside B, reference compound]
- IC50 [5]: 0.18 µM

Molecule: Frondoside A6 [Frondoside A6 (12)]
- IC50 (μg/mL) HepG2 [1]: 2.53 ± 0.66 µg/mL
- IC50 (μg/mL) K562 [2]: 6.59 ± 0.11 µg/mL
- IC50 (μg/mL) HeLa [3]: 3.75 ± 0.51 µg/mL
- IC50 (μg/mL) HL-7702 [4]: 6.05 ± 0.67 µg/mL
- Ratio (HL-7702/HepG2) [4]: 2.39

Molecule: HS-1 [HS-1 (5)]
- IC50 (μg/mL) HepG2 [1]: 6.10 ± 0.33 µg/mL
- IC50 (μg/mL) K562 [2]: 12.95 ± 1.54 µg/mL
- IC50 (μg/mL) HeLa [3]: 3.20 ± 0.32 µg/mL
- IC50 (μg/mL) HL-7702 [4]: 7.19 ± 0.20 µg/mL
- Ratio (HL-7702/HepG2) [4]: 1.18

Molecule: Holothurin B4 [Holothurin B4 (4)]
- IC50 (μg/mL) HepG2 [1]: 2.71 ± 0.12 µg/mL
- IC50 (μg/mL) K562 [2]: 3.55 ± 0.53 µg/mL
- IC50 (μg/mL) HeLa [3]: 2.71 ± 0.54 µg/mL
- IC50 (μg/mL) HL-7702 [4]: 4.58 ± 0.54 µg/mL
- Ratio (HL-7702/HepG2) [4]: 1.69

Molecule: Scabraside B [Scabraside B (9)]
- IC50 (μg/mL) HepG2 [1]: 7.29 ± 0.62 µg/mL
- IC50 (μg/mL) K562 [2]: 11.85 ± 2.26 µg/mL
- IC50 (μg/mL) HeLa [3]: 4.44 ± 0.85 µg/mL
- IC50 (μg/mL) HL-7702 [4]: 11.03 ± 1.37 µg/mL
- Ratio (HL-7702/HepG2) [4]: 1.51

Molecule: Scabraside D [Scabraside D (8)]
- IC50 (μg/mL) HepG2 [1]: 3.33 ± 0.33 µg/mL
- IC50 (μg/mL) K562 [2]: 10.06 ± 1.06 µg/mL
- IC50 (μg/mL) HeLa [3]: 3.84 ± 0.42 µg/mL
- IC50 (μg/mL) HL-7702 [4]: 4.40 ± 0.22 µg/mL
- Ratio (HL-7702/HepG2) [4]: 1.32

Molecule: okhotosides B2
- IC50 against HeLa cells (HeLa cells): 13.0 µg/mL

Molecule: okhotosides B3
- IC50 against HeLa cells (HeLa cells): 17.8 µg/mL
